From patent publication US20080260857A1, “Substance and Method for Treating Neoplasms” (priority 2005, published 2008)

Tested on: myeloma NS/0 cells
Assay: Myeloma NS/0 tumor in mice
Assay type: in vivo, DBA/BALB(F1) mice
Conditions: Table 3; i.p. 0.5 ml once a day for 5 days from day 3; Succinate 0.1 mg/mouse, IFN 10^5 IU/mouse, rubomicin 0.016 mg/mouse, etoposide 0.03 mg/mouse; day 21; light water 99.90%; mean ±SD (n=5)
Description: Procedure. DBA/BALB(F1) mice were injected i.p. with 3×10^6 myeloma NS/0 cells to induces tumor. Myeloma NS/O-bearing mice were treated for 5 days since the third day of tumor implantation singly a day with i.p. injection of 0.5 ml saline made on the control water or 0.5 ml saline made on light water. Tumor masses and percent of mitotic cells in bone marrow were measured on day 21. Data are presented in Table 2 as tumor mass mean ±SD (n=5).
Materials and tumor implantation procedure were as described in example 3. Interferon-alpha2b, rubomicin, and etoposide were used as typical anti-neoplasm agents.
Myeloma NS/O-bearing mice were treated for 5 days since the third day singly a day with i.p. injection of 0.5 ml saline made on the water (control), 0.5 ml solution of 0.1 mg/mouse disodium succinate hexahydrate (Succinate) made on the control water, 0.5 ml solution of 10^5 IU/mouse interferon-alpha2b (IFN) made on the control water, 0.5 ml solution of 0.016 mg/mouse rubomicin made on the control water, 0.5 ml solution of 0.03 mg/mouse etoposide made on the control water; 0.5 ml saline made on light water, or 0.5 ml solution of 0.1 mg/mouse disodium succinate hexahydrate (Succinate) made on the light water, and 0.5 ml solution of 10^5 IU/mouse interferon-alpha2b (IFN) made on the light water, 0.5 ml solution of 0.016 mg/mouse rubomicin made on the light water, 0.5 ml solution of 0.03 mg/mouse etoposide made on the light water. Tumor masses were measured on day 21. Data are presented in Table 3 as tumor mass mean ±SD (n=5).

| Compound | Tumor Mass [mg/mouse] |
| --- | --- |
| rubomicin [Control water + rubomicin] | 1270 ± 150 |
| O.O.O.O.O.O.O=C([O-])CCC(=O)[O-].[Na+].[Na+] [Control water + Succinate, disodium succinate hexahydrate] | 1780 ± 220 |
| interferon-alpha2b [Control water + IFN] | 1460 ± 180 |
| COc1cc([C@@H]2c3cc4c(cc3[C@@H](O[C@@H]3O[C@@H]5CO[C@@H](C)O[C@H]5[C@H](O)[C@H]3O)[C@H]3COC(=O)[C@H]23)OCO4)cc(OC)c1O [Control water + etoposide, etoposide] | 1050 ± 120 |
